# Results: patent publication US5843916A, “Cyclic amp analogues, individually and in pairs, to inhibit neoplastic cell growth” (priority 1994, dated 1998)
# “Also recorded” adds a separate entry of the source. Read-outs that look alike come from different tables or passages of the source.
# How the values were obtained:
# [1] = tested on: HL-60 leukemia cells; assay: Surface antigen expression of HL-60 cells (Example 5); type: cell-based, human; details: Homo sapiens, HL-60, 72 h
# Procedure: (§1) Briefly, cells were fixed in 70% ethanol and stored at 4° C. before analysis. Nuclear DNA was stained with propidium iodide, 50 μg/ml in phosphate-buffered saline (pH 7.4), for 30 minutes at room temperature. RNase was added to avoid double-helix RNA staining. The DNA content of cells was analyzed by a FACScan flow cytometer coupled with a Hewlett-Packard computer. Cell cycle data analysis was performed by a Cell-FIT program according to the method of Dean (Cell Tissue Kinet. 13: 299-308 (1980)) (Becton Dickinson Immunocytometry Systems). Pulse area versus pulse width gating was performed to exclude doublets from the G2 -M region. For each sample, 20,000 events were stored in list mode. Cell surface antigen analysis was performed by flow cytometry with FACScan using a panel of monoclonal antibodies reactive with either monocytic or myeloid cells.
# The effect of Rp- and Sp-8-Cl-cAMPS on the expression of differentiation markers in HL-60 cells was examined to determine if the growth-arrested HL-60 cells are more differentiated than untreated cells. […] For each sample, 2×10^4 cells were analyzed. Cell surface antigen analysis was performed by flow cytometry with FACScan. Cell gating was performed using forward and side scatter.
# [2] = target: T1, RI, regulatory subunit of cAMP-dependent protein kinase type I (Oryctolagus cuniculus, UniProt G1TDN4); assay: Binding affinity for RI (Table 14)
# T1 construct: from tissue
# T1 sequence (G1TDN4 1-381): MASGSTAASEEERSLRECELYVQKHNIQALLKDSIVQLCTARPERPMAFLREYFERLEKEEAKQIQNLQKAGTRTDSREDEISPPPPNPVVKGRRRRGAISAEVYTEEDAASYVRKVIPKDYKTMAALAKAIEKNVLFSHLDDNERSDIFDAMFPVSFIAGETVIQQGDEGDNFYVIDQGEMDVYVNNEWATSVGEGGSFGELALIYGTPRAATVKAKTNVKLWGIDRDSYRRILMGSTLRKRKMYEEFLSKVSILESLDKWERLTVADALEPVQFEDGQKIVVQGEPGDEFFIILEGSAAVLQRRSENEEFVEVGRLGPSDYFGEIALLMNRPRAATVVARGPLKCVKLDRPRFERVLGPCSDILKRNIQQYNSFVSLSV
# Procedure: (§2) RI and RII are the regulatory subunits of cAMP-dependent protein
# (§3) kinase type I and type II, respectively. Site A (Site 2) and Site B
# (§4) (RI and RII): the affinities of analogues for Site A and Site B were
# (§5) determined by the measurement of kinetic constants (inhibition constant,
# (§6) Ki), and the values are expressed as the relative affinity Ki
# (§7) (analogue), i.e., the ratio between the apparent inhibition constant for
# (§8) cAMP and the analogue, as described in Ogreid et al., Eur. J. Biochem.
# [3] = tested on: RI, regulatory subunit of cAMP-dependent protein kinase type I; assay: Binding affinity for RI (Table 14); details: compared with 8-Cl-cAMP
# Procedure: as §2, §3, §4, §5, §6, §7, §8
# [4] = target: T2, RII, regulatory subunit of cAMP-dependent protein kinase type II (Bos taurus, UniProt P00515); assay: Binding affinity for RII (Table 14)
# T2 construct: from tissue
# T2 sequence (P00515 whole entry): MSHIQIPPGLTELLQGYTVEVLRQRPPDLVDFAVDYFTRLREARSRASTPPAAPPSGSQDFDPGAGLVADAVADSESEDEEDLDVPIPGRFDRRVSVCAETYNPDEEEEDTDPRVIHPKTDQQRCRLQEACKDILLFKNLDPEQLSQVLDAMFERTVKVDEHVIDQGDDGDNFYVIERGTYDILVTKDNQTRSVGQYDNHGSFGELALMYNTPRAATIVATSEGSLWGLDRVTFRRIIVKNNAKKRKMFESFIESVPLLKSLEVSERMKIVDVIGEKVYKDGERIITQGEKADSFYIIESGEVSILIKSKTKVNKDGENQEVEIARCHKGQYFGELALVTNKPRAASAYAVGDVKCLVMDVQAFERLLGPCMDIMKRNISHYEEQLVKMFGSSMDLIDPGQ
# Procedure: as §2, §3, §4, §5, §6, §7, §8
# [5] = target: T3, Protein kinase type II (cAKII) (Bos taurus, UniProt P00515); assay: Protein kinase activation (Table 15); type: biochemical, bovine (heart); details: half-maximum activation; U. M.: unmeasurable
# T3 construct: prepared from rabbit skeletal muscle and bovine heart; from tissue; host or cells: bovine heart
# T3 sequence (P00515 2-401 limits assumed): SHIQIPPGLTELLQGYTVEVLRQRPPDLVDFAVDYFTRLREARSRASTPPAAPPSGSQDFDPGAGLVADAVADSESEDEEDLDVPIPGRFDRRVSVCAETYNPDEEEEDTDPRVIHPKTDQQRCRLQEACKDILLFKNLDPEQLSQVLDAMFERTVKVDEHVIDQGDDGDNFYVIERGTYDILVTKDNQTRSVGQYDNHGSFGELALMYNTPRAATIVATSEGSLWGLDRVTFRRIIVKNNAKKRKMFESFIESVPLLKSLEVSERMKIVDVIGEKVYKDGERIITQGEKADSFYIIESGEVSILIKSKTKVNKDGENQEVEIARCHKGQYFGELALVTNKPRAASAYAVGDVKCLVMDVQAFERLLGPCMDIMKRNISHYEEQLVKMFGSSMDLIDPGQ
# Procedure: (§9) ATP to Kemptide as described by Ogreid et al., Eur. J. Biochem. 150: 219-227 (1985).
# (§10) Protein kinases types I (cAKI) and II (cAKII) were
# (§11) prepared from rabbit skeletal muscle and bovine heart,
# (§12) respectively, as described in D.o slashed.skeland et al. (J. Biol.
# (§13) of the protein kinase in Ogreid et al. (Eur. J. Biochem.
# [6] = tested on: LS-174T human colon carcinoma cells; assay: Additive growth inhibition with 8-Cl-cAMP (Table 19); type: cell-based
# Procedure: The medium was changed every 48 hours.
# At desired times, cell counts were performed in duplicate on a Coulter Counter after harvesting cells with gentle trypsinization.
# The analogues were added at 24
# [7] = target: T4, Protein kinase type I (cAKI) (Oryctolagus cuniculus, UniProt G1TDN4); assay: Protein kinase activation (Table 15); type: biochemical, rabbit (skeletal muscle); details: half-maximum activation; U. M.: unmeasurable
# T4 construct: prepared from rabbit skeletal muscle and bovine heart; from tissue; host or cells: rabbit skeletal muscle
# T4 sequence (G1TDN4 1-381): as the sequence (G1TDN4 1-381) above
# Procedure: as §9, §10, §11, §12, §13
# [8] = tested on: LS-174T human colon carcinoma cells; assay: Growth inhibition of LS-174T cells (Example 4, Table 18); type: cell-based
# Procedure: LS-174T human colon carcinoma cells were obtained from the National Cancer Institute, Division of Cancer Treatment, Bethesda, Md., and were grown in Eagle's minimum essential medium supplemented with 10% heat-inactivated fetal bovine serum, Eagle's minimum essential medium nonessential amino acids, 20 mM 4-(2-hydroxyethyl)-1-piperazineethanesulfonic acid, 2mM glutamine, and penicillin-streptomycin (Gibco). The medium was changed every 48 hours.
# LS-174T cells were seeded at a density of 2×10^5 / 60 mm dish. […] At desired times, cell counts were performed in duplicate on a Coulter Counter after harvesting cells with gentle trypsinization.
# The percentage growth inhibition values shown at 10
# and 50 μM analogue concentrations were determined from
# the dose-response curve experiments like those shown in
# FIG. 1 and represent an average value obtained for each
# analogue from two or more separate experiments. Sp-6-SET-
# [9] = tested on: HL-60 human leukemia cells; assay: Growth inhibition of HL-60 leukemia cells (Example 3, Table 16); type: cell-based; details: for IC50: Homo sapiens; for fold less potent than 8-Cl-cAMP: growth inhibition HL-60, day 6
# Procedure: HL-60 leukemic cells were obtained from the American Type Culture Collection (Rockville, Md.) and were grown in suspension culture in RPMI 1640 supplemented with 10% heat-inactivated fetal bovine serum, streptomycin (500 μg/ml), penicillin (50 units/ml), and glutamine (1 mM) (Gibco, Grand Island, N.Y.).
# Cell counts were performed at desired times on a Coulter Counter.
# The IC50 values were determined from the dose-
# represent an average value obtained for each analogue
# from two or more separate experiments carried out from 3
# days or 6 days. Initial cell number, 1 × 10^5 /dish.
# Typical numbers of untreated control cells at day 3 and
# viability in treated and control cells.
# [10] = tested on: HL-60 Cells; assay: Cell cycle kinetics of HL-60 cells (Table 17); type: cell-based, human; details: for % G2 M: control 8.3; for % G0-G1: control 45.7; for % S: control 46
# Procedure: as §1
# [11] = tested on: cAMP-phosphodiesterase (PDE); details: no test described; cited from earlier work
compound,measurement,setting,value
"Nc1ncnc2c1nc(Cl)n2[C@@H]1O[C@@H]2CO[P@@](O)(=S)O[C@H]2[C@H]1O [Rp-8-Cl-cAMPS, Rp-(equatorial exocyclic sulfursubstitution) 8-chloro-adenosine 3': 5'-monophosphorothioate]",viability at 50 µM,[1]; read-out: cell viability,90%
same,fold induction at 50 µM,[1]; read-out: increase of HLA-DR over control,2
same,fold induction at 50 µM,[1]; read-out: increase of Leu-15 over control,3
same,"relative affinity Ki (cAMP)/Ki (analogue), RI Site A",[2]; Site A (Site 2),0.0079
same,"relative affinity Ki (cAMP)/Ki (analogue), RI Site B",[2]; Site B (Site 1),0.0042
same,decrease in affinity for Site A of RI vs corresponding cyclophosphate,[2]; vs cyclophosphate,340 fold
same,decrease in affinity for Site B of RI vs corresponding cyclophosphate,[2]; vs cyclophosphate,480 fold
same,affinity for cAMP receptor protein / protein kinase,[3],reduced affinity for the cAMP receptor protein
same,"relative affinity Ki (cAMP)/Ki (analogue), RII Site A",[4]; Site A (Site 2),0.00028
same,"relative affinity Ki (cAMP)/Ki (analogue), RII Site B",[4]; Site B (Site 1),0.44
same,decrease in affinity for Site A of RII vs corresponding cyclophosphate,[4]; vs cyclophosphate,180 fold
same,decrease in affinity for Site B of RII vs corresponding cyclophosphate,[4]; vs cyclophosphate,10 fold
same,"Activation Constant (Ka), cAKII",[5],U. M.
same,inhibition at 5 µM,"[6]; Homo sapiens, LS174T, 96 h, 5 μM, 4 days",34%
same,inhibition at 10 µM,"[6]; Homo sapiens, LS174T, 96 h, 10 μM, 4 days",48%
same,inhibition at 200 µM,"[6]; Homo sapiens, LS174T, 96 h, 200 μM, 4 days",80%
same,effect on growth-inhibitory effect of 8-Cl-cAMP,[6]; with 8-Cl-cAMP,additive effect
same,"Activation Constant (Ka), cAKI",[7],U. M.
same,inhibition at 10 µM,"[8]; Homo sapiens, LS174T",48%
same,inhibition at 50 µM,"[8]; Homo sapiens, LS174T",70%
same,growth inhibitory potency,[8]; LS-174T,greatest inhibition of cell growth
same,growth inhibitory potency,[9]; HL-60,less inhibitory than 8-Cl-cAMP but was more potent than Sp-8-Cl-cAMPS
same,IC50,"[9]; HL-60, 72 h, read-out: Growth inhibition (IC50), Day 3",16 µM
same,IC50,"[9]; HL-60, 144 h, read-out: Growth inhibition (IC50), Day 6",3 µM
same,fold less potent than 8-Cl-cAMP,[9],about 10 fold
same,fold less potent than 8-Cl-cAMP,[9]; listed as Rp-phosphorothioate of 8-Cl-cAMP,10 fold
same,growth inhibitory effect greater than that of Sp-8-Cl-cAMPS,[9]; vs Sp-8-Cl-cAMPS,3 fold
same,% G2 M,"[10]; 10 μM, 96 hours",9.8%
same,% G0-G1,"[10]; 10 μM, 96 hours",43.5%
same,% S,"[10]; 10 μM, 96 hours",46.7%
same,% G2 M,"[10]; 50 μM, 96 hours",9.0%
same,% G0-G1,"[10]; 50 μM, 96 hours",41.6%
same,% S,"[10]; 50 μM, 96 hours",49.4%
same,% G2 M,"[10]; 100 μM, 96 hours",10.9%
same,% G0-G1,"[10]; 100 μM, 96 hours",37.9%
same,% S,"[10]; 100 μM, 96 hours",51.2%
same,toxic effect,"[10]; 100 μM, 96 hours, footnote b",Toxic effect
same,cell cycle phase distribution,"[10]; HL-60, 96 hours in Table 17",not appreciably different; also recorded: did not bring about any change in cell cycle phase
same,hydrolysis by phosphodiesterase,[11],resistant to hydrolysis
